From paper PMC3298710, “^111In-BnDTPA-F3: an Auger electron-emitting radiotherapeutic agent that targets nucleolin” (EJNMMI Research, 2012)

Tested on: 231-H2N cells
Assay: Clonogenic survival
Assay type: cell-based, human
Conditions: 24 h, amount equivalent to 2 μM 111In-BnDTPA-F3 at highest specific activity, from 100 ± 5%
Experimental: […] After incubation at 37°C for 24 h, 2 × 10^3 cells were seeded per well in a 6-well plate, and 2 mL of fresh growth medium was added. After 7 to 14 days, cell colonies were stained with methylene blue (2% methylene blue in water/methanol 1:1) and counted. Combination indices (CI) of ^111In with BnDTPA-F3 were determined as described by Edelman et al.. A CI < 0.9 indicates superadditivity.

[Cl][111In]([Cl])[Cl] [111In chloride]
clonogenic survival, equivalent amount of 111In chloride: 46 ± 4%
